Test: xn = mol fraction of the nth substance listed, in the solute-free solvent

Nc1cc(-c2ccncc2)c[nH]c1=O + CO + O
solubility (g/100 g solution)
Settings | 278.15 K | 283.15 K | 288.15 K | 293.15 K | 298.15 K | 303.15 K | 308.15 K | 313.15 K | 318.15 K | 323.15 K
x2 = 0.05881 | 0.00167 | 0.00195 | 0.00231 | 0.00269 | 0.00313 | 0.00358 | 0.00409 | 0.00463 | 0.00525 | 0.00594
x2 = 0.1233 | 0.00324 | 0.00377 | 0.00445 | 0.00515 | 0.00595 | 0.00677 | 0.00768 | 0.00865 | 0.00977 | 0.011
x2 = 0.1942 | 0.00545 | 0.00626 | 0.00731 | 0.00841 | 0.00969 | 0.011 | 0.0124 | 0.0141 | 0.0159 | 0.0179
x2 = 0.2727 | 0.00818 | 0.00949 | 0.0111 | 0.0129 | 0.0147 | 0.0167 | 0.0189 | 0.0211 | 0.0237 | 0.0266
x2 = 0.3599 | 0.0113 | 0.013 | 0.0152 | 0.0174 | 0.0201 | 0.0228 | 0.0258 | 0.029 | 0.0326 | 0.0367
x2 = 0.4576 | 0.0147 | 0.0171 | 0.0201 | 0.0232 | 0.0266 | 0.0302 | 0.034 | 0.0381 | 0.0428 | 0.048
x2 = 0.5675 | 0.0183 | 0.0214 | 0.0246 | 0.029 | 0.0331 | 0.0375 | 0.0424 | 0.0475 | 0.0536 | 0.0605
x2 = 0.6923 | 0.0222 | 0.026 | 0.0305 | 0.0355 | 0.0408 | 0.0463 | 0.0524 | 0.0586 | 0.0662 | 0.0743
x2 = 0.835 | 0.0262 | 0.0305 | 0.0355 | 0.0412 | 0.0475 | 0.0545 | 0.0616 | 0.0694 | 0.0789 | 0.0893

Cl.NC1CCSC1=O (stereo unspecified) + CO + CC#N
solubility (g/100 g solution)
Settings | x2 = 0.1 | x2 = 0.2 | x2 = 0.3 | x2 = 0.4 | x2 = 0.5 | x2 = 0.6 | x2 = 0.7 | x2 = 0.8 | x2 = 0.9
283.15 K | 0.153 | 0.482 | 1.04 | 1.98 | 3.18 | 4.35 | 4.99 | 5.63 | 6.22
293.15 K | 0.155 | 0.525 | 1.13 | 2.12 | 3.55 | 4.89 | 6.04 | 6.92 | 7.84
303.15 K | 0.17 | 0.539 | 1.22 | 2.35 | 3.91 | 5.55 | 6.97 | 8.29 | 9.23
313.15 K | 0.177 | 0.556 | 1.32 | 2.56 | 4.25 | 6.26 | 7.78 | 9.55 | 10.7
323.15 K | 0.194 | 0.6 | 1.46 | 2.83 | 4.71 | 7.06 | 8.51 | 10.9 | 12.3

CC(C)C(=O)Nc1ccc([N+](=O)[O-])c(C(F)(F)F)c1 + CCOC(C)=O + CC(C)O
solubility (g/100 g solution)
Settings | 278.15 K | 283.15 K | 288.15 K | 293.15 K | 298.15 K | 303.15 K | 308.15 K | 313.15 K | 318.15 K | 323.15 K
x2 = 0.1 | 19.4 | 22.7 | 26.3 | 30.2 | 33.9 | 38.7 | 43.5 | 48.3 | 53 | 57.4
x2 = 0.2 | 28.6 | 30.8 | 33.4 | 36.8 | 40.7 | 44.4 | 48.2 | 51.8 | 55.6 | 59.2
x2 = 0.3 | 30.6 | 34.2 | 38 | 41.5 | 44.9 | 48.2 | 51.3 | 54.9 | 58.2 | 61.5
x2 = 0.4 | 32.7 | 36.3 | 39.5 | 42.8 | 45.9 | 49 | 52.5 | 55.8 | 58.7 | 61.9
x2 = 0.5 | 33.7 | 37.2 | 40.7 | 44 | 46.9 | 49.8 | 52.9 | 56.1 | 59.3 | 62.1
x2 = 0.6 | 34.3 | 38 | 41.5 | 44.7 | 47.6 | 50.4 | 53.3 | 56.4 | 59.4 | 62.5
x2 = 0.7 | 34.5 | 37.8 | 41 | 44.3 | 47.4 | 50.3 | 53.4 | 56.4 | 59.4 | 62.4
x2 = 0.8 | 34.2 | 37.7 | 41.3 | 44.7 | 47.8 | 50.9 | 53.6 | 56.7 | 59.8 | 62.9
x2 = 0.9 | 34.4 | 37.9 | 41.5 | 44.8 | 47.8 | 51.1 | 53.9 | 56.6 | 59.5 | 62.6

CC(C)C(=O)Nc1ccc([N+](=O)[O-])c(C(F)(F)F)c1 + CC(C)=O + CC(C)O
solubility (g/100 g solution)
Settings | 278.15 K | 283.15 K | 288.15 K | 293.15 K | 298.15 K | 303.15 K | 308.15 K | 313.15 K | 318.15 K | 323.15 K
x2 = 0.1 | 25.4 | 27.7 | 30.1 | 33.4 | 37.2 | 41 | 44.5 | 48.4 | 53.4 | 59
x2 = 0.2 | 31.8 | 34.1 | 37 | 40.1 | 44.1 | 48 | 52 | 55.4 | 58.7 | 61.9
x2 = 0.3 | 35.7 | 39 | 42 | 45.1 | 48.5 | 52.2 | 55.4 | 58.4 | 61.4 | 64.6
x2 = 0.4 | 38.8 | 42.4 | 45.5 | 48.8 | 52.2 | 55.7 | 59.1 | 62.2 | 65 | 68
x2 = 0.5 | 42.2 | 45.7 | 48.9 | 52.2 | 55.5 | 58.8 | 61.7 | 65 | 68.2 | 71.2
x2 = 0.6 | 44.1 | 47.5 | 51.6 | 54.6 | 57.9 | 61.1 | 63.8 | 67.1 | 70.5 | 73.9
x2 = 0.7 | 47.6 | 50.5 | 54.4 | 57.4 | 60.6 | 64 | 66.9 | 70.1 | 73.3 | 76.3
x2 = 0.8 | 49.3 | 52.8 | 56.5 | 59.7 | 62.9 | 66.1 | 68.9 | 72 | 75.2 | 78.1
x2 = 0.9 | 51 | 54.5 | 58 | 61.3 | 64.7 | 67.9 | 71.1 | 74 | 76.8 | 79.6

NC(N)=C([N+](=O)[O-])[N+](=O)[O-] + CS(C)=O + CC(=O)CC(C)C
solubility (g/100 g solution)
Settings | 293.15 K | 298.15 K | 303.15 K | 308.15 K | 313.15 K | 318.15 K | 323.15 K | 328.15 K | 333.15 K
x2 = 0.1634 | 1.9 | 1.97 | 2.1 | 2.25 | 2.41 | 2.57 | 2.74 | 2.92 | 3.13
x2 = 0.3054 | 5.11 | 5.4 | 5.7 | 5.99 | 6.28 | 6.6 | 6.95 | 7.29 | 7.68
x2 = 0.4297 | 9.16 | 9.64 | 10 | 10.4 | 10.8 | 11.2 | 11.7 | 12.2 | 12.7
x2 = 0.5397 | 13.1 | 13.7 | 14.2 | 14.6 | 15.1 | 15.6 | 16.1 | 16.7 | 17.2
x2 = 0.6375 | 17 | 17.6 | 18.1 | 18.6 | 19 | 19.6 | 20.1 | 20.7 | 21.3
x2 = 0.7251 | 20.2 | 21 | 21.5 | 21.9 | 22.5 | 23.1 | 23.7 | 24.3 | 25
x2 = 0.804 | 23.2 | 23.8 | 24.3 | 24.8 | 25.3 | 25.9 | 26.6 | 27.2 | 27.8
x2 = 0.8755 | 25.6 | 26.3 | 26.8 | 27.2 | 27.8 | 28.4 | 28.9 | 29.6 | 30.2
x2 = 0.9406 | 27.4 | 28.5 | 29 | 29.5 | 30.1 | 30.6 | 31.2 | 31.8 | 32.4

Nc1cc(-c2ccncc2)c[nH]c1=O + OCCO + O
solubility (g/100 g solution)
Settings | 278.15 K | 283.15 K | 288.15 K | 293.15 K | 298.15 K | 303.15 K | 308.15 K | 313.15 K | 318.15 K | 323.15 K
x2 = 0.03125 | 0.000969 | 0.00114 | 0.00136 | 0.0016 | 0.00188 | 0.00216 | 0.00248 | 0.00283 | 0.00323 | 0.00367
x2 = 0.06767 | 0.00136 | 0.0016 | 0.00191 | 0.00224 | 0.00262 | 0.00301 | 0.00345 | 0.00393 | 0.00447 | 0.00508
x2 = 0.1107 | 0.00187 | 0.00221 | 0.00263 | 0.0031 | 0.00358 | 0.00411 | 0.00469 | 0.00542 | 0.00618 | 0.00703
x2 = 0.1622 | 0.00264 | 0.00312 | 0.00368 | 0.00432 | 0.00505 | 0.00577 | 0.00658 | 0.00746 | 0.00845 | 0.00955
x2 = 0.225 | 0.0034 | 0.00407 | 0.00476 | 0.00562 | 0.00649 | 0.00751 | 0.00852 | 0.00976 | 0.0111 | 0.0126
x2 = 0.3034 | 0.00444 | 0.00524 | 0.00616 | 0.00725 | 0.00846 | 0.00962 | 0.0109 | 0.0124 | 0.014 | 0.0158
x2 = 0.4038 | 0.00528 | 0.00637 | 0.00751 | 0.00882 | 0.0103 | 0.0117 | 0.0131 | 0.0148 | 0.0168 | 0.0189
x2 = 0.5373 | 0.00588 | 0.00697 | 0.00817 | 0.00966 | 0.0113 | 0.0128 | 0.0146 | 0.0165 | 0.0186 | 0.021
x2 = 0.7232 | 0.00648 | 0.00764 | 0.00919 | 0.0108 | 0.0123 | 0.014 | 0.016 | 0.0178 | 0.0199 | 0.0224
